{"source": "BindingDB's records for doi:10.1016/j.bmcl.2007.02.059", "about": "(Johnson & Johnson Pharmaceutical Research & Development, 2007)", "key": {"[1]": {"test": "Inhibition of human Rsk2"}, "[2]": {"test": "Inhibition of human Rsk3"}}}
{"compound": "CN(C)c1nc2ccc1CCCn1cc(c3ccccc31)C1=C(C(=O)NC1=O)c1cn(c3ccccc13)CC2", "values": [{"measurement": "IC50", "setting": "[1]", "value": 0.85, "unit": "µM"}, {"measurement": "IC50", "setting": "[2]", "value": 0.048, "unit": "µM"}]}
